Results reported in patent US9296725B2, “Heterocyclyl pyrimidine analogues as TYK2 inhibitors” (Cellzome Limited, priority 2012, dated 2016).
Where two headings read alike, the source gives them in different places.

How the values were obtained:
[1] = biological target: T1, TYK2 (Homo sapiens, UniProt P29597); assay: Kinobeads assay, TYK2 (competition binding in mixed Molt4/Ramos cell lysate, dot blot detection)
T1 construct: endogenous in cells; host or cells: Molt4 (ATCC CRL-1582) and Ramos (ATCC CRL-1596), mixed lysate 1:2
Method in brief: (§1)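 Competition binding: compound dilutions (1:3 series, 9 steps) plus immobilized aminopyrido-pyrimidine beads incubated 3 h in the cold with mixed Molt4/Ramos lysate (1:2) at 10 mg/mL protein. Bead-bound JAK2/TYK2 eluted and quantified by antibody dot blot with infrared detection; IC50 from dose-response curves.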

[2] = biological target: T2, JAK2 (Homo sapiens, UniProt O60674); assay: Kinobeads assay, JAK2 (competition binding in mixed Molt4/Ramos cell lysate, dot blot detection); conditions: read-out: JAK2 Band (Kinobeads assay potency, IC50)
T2 construct: endogenous in cells; host or cells: Molt4 (ATCC CRL-1582) and Ramos (ATCC CRL-1596), mixed lysate 1:2
Method in brief: as §1

[3] = Kinobeads assay, Molt4/Ramos lysate, read-out: TYK2 Band (Kinobeads assay potency, IC50)

T2 sequence (O60674 whole entry): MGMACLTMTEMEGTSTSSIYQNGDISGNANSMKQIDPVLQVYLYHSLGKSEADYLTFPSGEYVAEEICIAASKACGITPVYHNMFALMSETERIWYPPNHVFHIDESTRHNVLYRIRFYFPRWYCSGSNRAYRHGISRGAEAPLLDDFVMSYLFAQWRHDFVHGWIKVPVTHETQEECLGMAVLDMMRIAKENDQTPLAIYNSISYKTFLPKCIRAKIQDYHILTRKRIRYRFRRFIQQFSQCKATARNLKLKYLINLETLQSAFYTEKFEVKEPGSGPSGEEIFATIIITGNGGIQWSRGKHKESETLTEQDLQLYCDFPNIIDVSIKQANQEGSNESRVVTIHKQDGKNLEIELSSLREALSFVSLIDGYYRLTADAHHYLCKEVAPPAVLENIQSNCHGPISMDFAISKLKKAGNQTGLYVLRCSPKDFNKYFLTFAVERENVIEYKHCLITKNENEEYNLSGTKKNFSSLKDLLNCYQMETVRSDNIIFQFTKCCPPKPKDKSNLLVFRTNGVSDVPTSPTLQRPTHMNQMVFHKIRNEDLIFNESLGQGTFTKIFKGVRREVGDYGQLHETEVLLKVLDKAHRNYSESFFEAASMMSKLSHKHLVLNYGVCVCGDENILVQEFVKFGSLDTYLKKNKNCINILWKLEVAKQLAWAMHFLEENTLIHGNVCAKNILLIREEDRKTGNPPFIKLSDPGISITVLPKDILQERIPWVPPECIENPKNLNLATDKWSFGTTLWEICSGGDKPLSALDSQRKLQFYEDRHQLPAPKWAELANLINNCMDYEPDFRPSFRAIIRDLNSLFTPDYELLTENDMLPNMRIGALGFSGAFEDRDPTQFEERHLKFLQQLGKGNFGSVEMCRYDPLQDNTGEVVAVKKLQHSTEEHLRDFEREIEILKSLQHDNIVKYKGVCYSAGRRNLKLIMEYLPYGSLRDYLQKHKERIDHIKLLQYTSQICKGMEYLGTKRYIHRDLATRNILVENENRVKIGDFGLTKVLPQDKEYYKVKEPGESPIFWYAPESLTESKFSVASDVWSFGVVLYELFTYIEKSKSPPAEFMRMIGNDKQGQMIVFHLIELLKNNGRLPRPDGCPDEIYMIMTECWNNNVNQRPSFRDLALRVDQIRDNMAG
T1 sequence (P29597 whole entry): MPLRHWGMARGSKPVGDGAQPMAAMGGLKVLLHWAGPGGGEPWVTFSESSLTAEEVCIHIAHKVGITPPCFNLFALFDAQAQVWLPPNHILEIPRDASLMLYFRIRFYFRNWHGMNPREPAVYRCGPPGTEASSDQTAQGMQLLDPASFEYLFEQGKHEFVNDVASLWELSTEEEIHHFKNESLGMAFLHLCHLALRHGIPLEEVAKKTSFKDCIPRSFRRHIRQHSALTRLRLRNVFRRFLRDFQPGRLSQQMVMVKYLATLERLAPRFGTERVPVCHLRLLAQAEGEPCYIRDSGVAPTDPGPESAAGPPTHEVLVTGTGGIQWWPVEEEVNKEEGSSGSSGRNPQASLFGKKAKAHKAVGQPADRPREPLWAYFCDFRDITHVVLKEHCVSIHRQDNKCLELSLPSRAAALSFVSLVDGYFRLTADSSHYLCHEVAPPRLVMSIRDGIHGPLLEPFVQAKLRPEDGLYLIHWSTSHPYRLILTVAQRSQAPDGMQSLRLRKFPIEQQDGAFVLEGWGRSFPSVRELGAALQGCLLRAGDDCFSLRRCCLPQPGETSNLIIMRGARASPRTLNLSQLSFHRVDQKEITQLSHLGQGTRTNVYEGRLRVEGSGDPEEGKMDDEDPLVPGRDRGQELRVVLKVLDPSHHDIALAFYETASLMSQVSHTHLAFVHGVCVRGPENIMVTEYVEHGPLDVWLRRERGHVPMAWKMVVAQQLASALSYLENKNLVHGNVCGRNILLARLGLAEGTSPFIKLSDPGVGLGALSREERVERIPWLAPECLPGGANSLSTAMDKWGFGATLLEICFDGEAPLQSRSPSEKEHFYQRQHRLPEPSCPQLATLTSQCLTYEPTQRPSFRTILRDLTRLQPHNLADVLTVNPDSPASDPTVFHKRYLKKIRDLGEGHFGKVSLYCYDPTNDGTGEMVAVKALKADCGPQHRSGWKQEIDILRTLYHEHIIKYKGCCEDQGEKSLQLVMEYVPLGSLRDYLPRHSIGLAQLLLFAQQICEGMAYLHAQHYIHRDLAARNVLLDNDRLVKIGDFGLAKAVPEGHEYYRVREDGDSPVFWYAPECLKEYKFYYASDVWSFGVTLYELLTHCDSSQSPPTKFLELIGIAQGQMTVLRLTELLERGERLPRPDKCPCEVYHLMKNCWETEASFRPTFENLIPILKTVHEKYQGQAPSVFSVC

Structure (SMILES)	IC50 [1, 3] [nM]	IC50 [2] [nM]	IC50 ([1]; read-out: TYK2 IC50) [nM]
N#CCOc1cccc(CNc2nc(Nc3cnn(CC(N)=O)c3)ncc2Cl)c1 [Example I-362]	100 to 1000	1000 to 10000	
NC(=O)Cn1cc(Nc2ncc(Cl)c(NCc3ccccc3)n2)cn1 [Example I-206]	100 to 1000	100 to 1000	
CS(=O)(=O)c1cccc(CNc2nc(Nc3cnn(CCO)c3)ncc2Cl)c1 [Example I-363]	100 to 1000	1000 to 10000	
CS(=O)(=O)c1ccc(F)cc1CNc1nc(Nc2cn[nH]c2)ncc1F [Example I-486]	100 to 1000	100 to 1000	
Cn1cc(Nc2ncc(Cl)c(NCc3ccccc3)n2)cn1 [Example I-158]	100 to 1000	1000 to 10000	
CNC(=O)Cn1cc(Nc2ncc(Cl)c(NCc3cccc(F)c3F)n2)cn1 [Example I-208]	100 to 1000	100 to 1000	
CNS(=O)(=O)c1cccc(CNc2nc(Nc3cnn(C)c3)ncc2Cl)c1 [Example I-200]	100 to 1000	1000 to 10000	
[2H]C([2H])(O)C([2H])([2H])n1cc(Nc2ncc(Cl)c(NCc3cccc(F)c3F)n2)cn1 [Example I-233]	100 to 1000	1000 to 10000	
OCCn1cc(Nc2ncc(Cl)c(NCc3cccnc3)n2)cn1 [Example I-255]	100 to 1000	1000 to 10000	
CS(=O)(=O)c1ccc(F)cc1CNc1nc(Nc2cnn(CCO)c2)ncc1F [Example I-488]	10 to 100	100 to 1000	
COc1ccc(F)c(CNc2nc(Nc3cnn(CC(=O)NCC(C)C)c3)ncc2Cl)c1F [Example I-428]	10 to 100	1000 to 10000	
O=C(Cn1cc(Nc2nccc(NCc3c(F)cccc3Cl)n2)cn1)NCCF [Example I-140]	10 to 100	1000 to 10000	
COc1ccc(F)c(CNc2nc(Nc3cnn(CCOC(C)C)c3)ncc2F)c1F [Example I-394]	100 to 1000	> 10000	
COc1ccccc1CNc1nc(Nc2cnn(C)c2)ncc1Cl [Example I-228]	100 to 1000	1000 to 10000	
O=C(O)Cn1cc(Nc2ncc(Cl)c(NCc3cc(F)cc(F)c3)n2)cn1 [Example I-168]	100 to 1000	100 to 1000	
Cc1cnc(Nc2cnn(CC(=O)O)c2)nc1NCc1c(F)ccc(F)c1F [Example I-424]	10 to 100	100 to 1000	
CC(C)(C)OC(=O)N1CCN(C(=O)Cn2cc(Nc3ncc(Cl)c(NCc4ccccc4)n3)cn2)CC1 [Example I-207]	100 to 1000	> 10000	
Cn1cc(Nc2ncc(Cl)c(NCc3c(F)cc(F)cc3F)n2)cn1 [Example I-385]	10 to 100	1000 to 10000	
COc1ccc(F)c(CNc2nc(Nc3cnn(CC(=O)NC(C)C)c3)ncc2Cl)c1F [Example I-427]	10 to 100	1000 to 10000	
Cc1noc(Cn2cc(Nc3ncc(Cl)c(NCc4c(F)cccc4F)n3)cn2)n1 [Example I-483]	100 to 1000	1000 to 10000	
Cc1ccc(F)c(CNc2ccnc(Nc3cnn(CC(=O)N[C@@H](C)CO)c3)n2)c1F [Example I-130]	10 to 100	1000 to 10000	
COc1ccc(F)c(CNc2nc(Nc3cnn(CC(=O)O)c3)ncc2F)c1F [Example I-426]	10 to 100	> 10000	
OCCn1cc(Nc2ncc(Cl)c(NCc3cccc(F)c3)n2)cn1 [Example I-171]	10 to 100	100 to 1000	
COc1c(F)cc(F)cc1CNc1nc(Nc2cnn(CC(F)(F)F)c2)ncc1C [Example I-352]	1000 to 10000	1000 to 10000	
O=C(Cn1cc(Nc2ncc(Cl)c(NCc3ccccc3)n2)cn1)N1CC2(COC2)C1 [Example I-236]	100 to 1000	1000 to 10000	
O=C(O)Cn1cc(Nc2ncc(Cl)c(NCc3cc(F)cc(C(F)(F)F)c3)n2)cn1 [Example I-275]	100 to 1000	1000 to 10000	
OCCn1cc(Nc2ncc(Cl)c(NCc3ccc(C(F)(F)F)cc3F)n2)cn1 [Example I-245]	1000 to 10000	10 to 100	
CS(=O)(=O)c1ccccc1CNc1nc(Nc2cnn(CC(F)F)c2)ncc1Cl [Example I-471]	1000 to 10000	1000 to 10000	

Now from value to compound:

IC50 [1, 3] [nM]	IC50 [2] [nM]	IC50 ([1]; read-out: TYK2 IC50) [nM]	Structure (SMILES)
10 to 100	100 to 1000		OCCn1cc(Nc2ncc(F)c(NCc3cccc(F)c3)n2)cn1 [Example I-210]
10 to 100	100 to 1000		OCCn1cc(Nc2ncc(Cl)c(NCc3cc(Br)ccc3F)n2)cn1 [Example I-164]
10 to 100	100 to 1000		CS(=O)(=O)c1ccc(F)cc1CNc1nc(Nc2cnn(CC(N)=O)c2)ncc1F [Example I-489]
10 to 100	1000 to 10000		CS(=O)(=O)c1ccc(F)c(CNc2nc(Nc3cnn(CCO)c3)ncc2F)c1 [Example I-115]
10 to 100	1000 to 10000		O=C(Cn1cc(Nc2nccc(NCc3c(F)cc(F)cc3F)n2)cn1)N1CCOCC1 [Example I-27]
10 to 100	1000 to 10000		CC(C)NC(=O)Cn1cc(Nc2ncc(Cl)c(NCc3cccc(OC(F)F)c3)n2)cn1 [Example I-391]
10 to 100	1000 to 10000		C[C@H](CO)NC(=O)Cn1cc(Nc2ncc(F)c(NCc3c(F)cc(F)cc3F)n2)cn1 [Example I-41]
10 to 100	1000 to 10000		Cc1cnc(Nc2cnn(CC(=O)NC3CCC3)c2)nc1NCc1c(F)cc(F)cc1F [Example I-33]
≤ 10	1000 to 10000		C[C@@H](CO)NC(=O)Cn1cc(Nc2nccc(NCc3c(F)ccc(C#N)c3F)n2)cn1 [Example I-153]
10 to 100	1000 to 10000	< 100	Fc1cc(F)c(CNc2ccnc(Nc3cnn(CCN4CCOCC4)c3)n2)c(F)c1 [Example I-112]
≤ 10	1000 to 10000		O=C(Cn1cc(Nc2nccc(NCc3c(F)cc(F)cc3F)n2)cn1)N[C@@H]1C[C@@H]1F [Example I-102]
≤ 10	1000 to 10000		COc1ccc(Cl)c(CNc2ccnc(Nc3cnn(CC(=O)NC(C)C)c3)n2)c1F [Example I-79]
10 to 100	1000 to 10000		NC(=O)Cn1cc(Nc2ncc(F)c(NCc3c(F)cc(F)cc3F)n2)cn1 [Example I-157]
10 to 100	> 10000		N#CCNC(=O)Cn1cc(Nc2nccc(NCc3c(F)cc(F)cc3F)n2)cn1 [Example I-110]
10 to 100	1000 to 10000		O=C(Cn1cc(Nc2nccc(NCc3c(F)cc(F)cc3F)n2)cn1)NCCF [Example I-90]
10 to 100	1000 to 10000		COc1ccc(F)c(CNc2nc(Nc3cnn(CC(=O)O)c3)ncc2Cl)c1F [Example I-295]
10 to 100	100 to 1000		COc1c(F)cc(F)cc1CNc1nc(Nc2cnn(CC(=O)NC3CC3)c2)ncc1C [Example I-345]
≤ 10	100 to 1000		Cc1cnc(Nc2cnn(CC(=O)N(C)C)c2)nc1NCc1c(F)ccc(F)c1F [Example I-422]
10 to 100	1000 to 10000		CNC(=O)Cn1cc(Nc2ncc(Cl)c(NCc3cccc(C#N)c3)n2)cn1 [Example I-230]
10 to 100	1000 to 10000		CN(C)C(=O)Cn1cc(Nc2ncc(F)c(NCc3c(Cl)cccc3Cl)n2)cn1 [Example I-251]
10 to 100	> 10000		NS(=O)(=O)c1ccc(CNc2nc(Nc3cnn(CC(=O)NC4CC4)c3)ncc2Cl)cc1 [Example I-10]
10 to 100	1000 to 10000		CC(C)(CF)NC(=O)Cn1cc(Nc2nccc(NCc3c(F)cc(F)cc3F)n2)cn1 [Example I-430]
10 to 100	100 to 1000		Cc1cnc(Nc2cnn(C)c2)nc1NCc1c(F)cc(S(N)(=O)=O)cc1F [Example I-43]
10 to 100	100 to 1000		NC(=O)Cn1cc(Nc2ncc(Cl)c(NCc3c(Cl)cccc3Cl)n2)cn1 [Example I-324]
10 to 100	1000 to 10000		C[C@@H](CO)NC(=O)Cn1cc(Nc2nccc(NCc3c(F)cccc3F)n2)cn1 [Example I-151]
≤ 10	1000 to 10000		Cc1cccc(F)c1CNc1ccnc(Nc2cnn(CC(=O)N[C@@H](C)CO)c2)n1 [Example I-156]
≤ 10	100 to 1000		Cc1cnc(Nc2cnn(CC(=O)N3CCOCC3)c2)nc1NCc1c(F)ccc(F)c1F [Example I-423]
≤ 10	1000 to 10000		COc1ccc(F)c(CNc2nc(Nc3cnn(CC(=O)N(C)C)c3)ncc2F)c1F [Example I-13]
